Data: ChEMBL document CHEMBL3621074, “Exploration of the linkage elements of porcupine antagonists led to potent Wnt signaling pathway inhibitors” (Bioorg Med Chem, 2015)
Each block holds one compound with its values, some of them ahead of it. Active and inactive are the calls of the source. No cut-off for these calls is given here.

What was measured:
[1] = biological target: T1, Protein-serine O-palmitoleoyltransferase porcupine (Homo sapiens, UniProt Q9H237); experiment: Inhibition of porcupine (unknown origin) expressed in mouse L Wnt3A cells co-cultured with TM3 cells harboring luciferase reporter gene assessed as reduction in Wnt ligand-driven LEF/TCF-dependent transcriptional activity; type: cell-based
T1 sequence (Q9H237 whole entry): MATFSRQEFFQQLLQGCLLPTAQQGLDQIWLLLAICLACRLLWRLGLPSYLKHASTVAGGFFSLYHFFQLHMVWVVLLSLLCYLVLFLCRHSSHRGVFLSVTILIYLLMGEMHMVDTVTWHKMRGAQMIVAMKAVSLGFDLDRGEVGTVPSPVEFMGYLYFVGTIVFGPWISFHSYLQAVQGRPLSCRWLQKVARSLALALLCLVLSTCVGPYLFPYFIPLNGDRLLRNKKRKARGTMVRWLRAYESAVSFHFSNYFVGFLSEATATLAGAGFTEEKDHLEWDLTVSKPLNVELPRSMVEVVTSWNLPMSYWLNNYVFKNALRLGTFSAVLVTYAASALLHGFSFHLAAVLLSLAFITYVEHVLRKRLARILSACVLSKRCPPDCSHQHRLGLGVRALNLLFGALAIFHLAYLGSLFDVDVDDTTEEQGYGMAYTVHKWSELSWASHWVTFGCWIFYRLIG

[2] = biological target: T2, Protein-serine O-palmitoleoyltransferase porcupine (Homo sapiens) (UniProt Q9H237); experiment: Inhibition of porcupine (unknown origin) expressed in HEK293T cells transfected with pLinbin- Wnt3A plasmid assessed as inhibition of Wnt3A secretion at 0.1 uM incubated for 48 hrs by Western blotting method; type: cell-based; conditions: HEK-293T
T2 sequence (whole entry): T1 sequence (Q9H237 whole entry)

[3] = Stability of the compound in rat plasma assessed as drug remaining at 1 uM incubated for 30 mins by LC-MS/MS method; type: ADME, cell-free; conditions: read-out: Stability
[4] = Chemical stability in simulated gastric fluid assessed as remaining compound level incubated for 0 hrs at 200 uM at 40 degC by HPLC method; type: physicochemical; conditions: read-out: Stability
[5] = Stability of the compound in rat plasma assessed as drug remaining at 1 uM incubated for 1 hr by LC-MS/MS method; type: ADME, cell-free; conditions: read-out: Stability
[6] = Intrinsic clearance in human liver microsomes at 1 uM incubated for 60 mins in presence of NADPH by LC-MS/MS method; type: ADME; conditions: read-out: CLH
CYP2D6 = CYP2D6 (Homo sapiens, UniProt P10635); experiment: Inhibition of CYP2D6 in human liver microsomes at 10 uM pre-incubated for 10 mins before dextromethorphan substrate and NADPH addition by LC-MS/MS method; type: ADME; conditions: probe dextromethorphan
[7] = Half life in human liver microsomes at 1 uM in presence of NADPH by LC-MS/MS method; type: ADME
[8] = Effect on total intracellular Wnt3a levels in HEK293T cells transfected with pLinbin- Wnt3A plasmid at 0.1 uM incubated for 48 hrs by Western blotting method; type: ADME, cell-based; conditions: human, hek-293t
[9] = Chemical stability in simulated gastric fluid assessed as remaining compound level incubated for 8 hrs at 200 uM at 40 degC by HPLC method; type: physicochemical; conditions: read-out: Stability
[10] = Half life in mouse liver microsomes at 1 uM in presence of NADPH by LC-MS/MS method; type: ADME
[11] = Chemical stability in simulated gastric fluid assessed as remaining compound level incubated for 4 hrs at 200 uM at 40 degC by HPLC method; type: physicochemical; conditions: read-out: Stability
CYP3A4 = CYP3A4 (Homo sapiens, UniProt P08684); experiment: Inhibition of CYP3A4 in human liver microsomes at 10 uM pre-incubated for 10 mins before midazolam substrate and NADPH addition by LC-MS/MS method; type: ADME; conditions: probe midazolam
[12] = Stability of the compound in rat plasma assessed as drug remaining at 1 uM incubated for 8 hr by LC-MS/MS method; type: ADME, cell-free; conditions: read-out: Stability
[13] = Intrinsic clearance in mouse liver microsomes at 1 uM incubated for 60 mins in presence of NADPH by LC-MS/MS method; type: ADME; conditions: read-out: CLH
[14] = biological target: T2, Protein-serine O-palmitoleoyltransferase porcupine (Homo sapiens); experiment: Potency index, ratio of IC50 for LGK974 to IC50 for test compound for inhibition of porcupine (unknown origin) expressed in mouse L Wnt3A cells co-cultured with HEK293 STF cells by STF reporter gene based paracrine cellular reporter gene assay; type: cell-based

Chain of CYP3A4 (P08684 whole entry): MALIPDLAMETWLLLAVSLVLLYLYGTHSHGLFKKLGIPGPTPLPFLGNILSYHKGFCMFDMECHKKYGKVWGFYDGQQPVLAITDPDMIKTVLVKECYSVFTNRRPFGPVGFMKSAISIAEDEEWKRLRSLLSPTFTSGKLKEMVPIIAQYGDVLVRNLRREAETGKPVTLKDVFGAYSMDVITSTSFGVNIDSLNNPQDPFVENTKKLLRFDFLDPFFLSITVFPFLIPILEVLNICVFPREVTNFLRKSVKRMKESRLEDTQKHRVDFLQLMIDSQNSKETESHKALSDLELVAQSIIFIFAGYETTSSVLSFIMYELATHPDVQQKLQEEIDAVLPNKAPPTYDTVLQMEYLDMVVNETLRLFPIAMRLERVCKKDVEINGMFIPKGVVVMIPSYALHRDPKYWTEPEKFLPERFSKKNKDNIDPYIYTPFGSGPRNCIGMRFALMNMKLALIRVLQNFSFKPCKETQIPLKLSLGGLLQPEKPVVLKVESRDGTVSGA
Chain of CYP2D6 (P10635 whole entry): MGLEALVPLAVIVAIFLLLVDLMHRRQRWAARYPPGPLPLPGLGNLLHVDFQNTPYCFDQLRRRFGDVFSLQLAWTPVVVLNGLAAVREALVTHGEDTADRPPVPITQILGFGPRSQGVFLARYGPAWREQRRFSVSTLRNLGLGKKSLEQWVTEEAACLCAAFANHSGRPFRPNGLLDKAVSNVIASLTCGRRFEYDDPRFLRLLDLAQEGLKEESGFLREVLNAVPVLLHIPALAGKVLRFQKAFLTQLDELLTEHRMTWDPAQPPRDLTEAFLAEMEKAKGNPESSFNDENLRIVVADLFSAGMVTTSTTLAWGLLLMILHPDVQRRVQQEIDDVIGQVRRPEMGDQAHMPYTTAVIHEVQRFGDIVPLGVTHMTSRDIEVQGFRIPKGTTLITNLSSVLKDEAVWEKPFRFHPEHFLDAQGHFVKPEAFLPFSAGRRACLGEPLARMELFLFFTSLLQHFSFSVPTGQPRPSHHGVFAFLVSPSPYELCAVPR

Compound: Cc1cc(-c2cccc(OCC(=O)Nc3ccc(-c4cnccn4)cn3)c2)ccn1
IC50 [1]: 0.188 µM

Compound: O=C(COc1ccc2[nH]ncc2c1)Nc1ccc(-c2cnccn2)cn1
IC50 [1]: > 1 µM

Compound: Cn1ncc2cc(OCC(=O)Nc3ccc(-c4cnccn4)cn3)ccc21
IC50 [1]: > 1 µM

Compound: Cc1cc(-c2ccc(OC(=O)Nc3ccc(-c4ccccc4)cc3)cc2)ccn1
IC50 [1]: 0.005 µM

Compound: Cn1ncc2cc(NCC(=O)Nc3ccc(-c4cnccn4)cn3)ccc21
IC50 [1]: > 1 µM

Compound: CC(=O)N1CCN(c2ccc(OCC(=O)Nc3ccc(-c4cnccn4)cn3)cc2)CC1
IC50 [1]: 0.483 µM

Compound: Cc1cc(-c2cccc(NCC(=O)Nc3ccc(-c4cnccn4)cn3)c2)ccn1
IC50 [1]: 0.164 µM

Compound: CC(=O)N1CCc2ccc(OCC(=O)Nc3ccc(-c4cnccn4)cn3)cc2C1
IC50 [1]: 0.024 µM

Compound: O=C(COc1ccc2ccncc2c1)Nc1ccc(-c2cnccn2)cn1
IC50 [1]: 0.03 µM

Compound: Cc1cc(-c2ccc(OC(C)C(=O)Nc3ccc(-c4cnccn4)cn3)cc2)ccn1 (stereo not given)
inhibition [2]: Active
remaining at 0.5 h, 1 µM [3]: 100%
remaining at 0 h, 200 µM [4]: 97%
remaining at 1 h, 1 µM [5]: 100%
CLint scaled at 1 µM [6]: 2.58 L/h/kg
inhibition at 10 µM (CYP2D6): 53%
half-life at 1 µM [7]: 41 min
Activity [8]: Non-toxic
Ratio IC50 [14]: 5
IC50 [1]: 0.00011 µM
remaining at 8 h, 200 µM [9]: 71%
half-life at 1 µM [10]: 19 min
remaining at 4 h, 200 µM [11]: 85%
inhibition at 10 µM (CYP3A4): 67%
remaining at 8 h, 1 µM [12]: 100%
CLint scaled at 1 µM [13]: 19.3 L/h/kg

Compound: Cc1cc(-c2ccc(OCC(=O)Nc3ccc(-c4cnccn4)cn3)cc2)ccn1
inhibition [2]: Active
remaining at 0.5 h, 1 µM [3]: 97%
remaining at 0 h, 200 µM [4]: 96%
remaining at 1 h, 1 µM [5]: 90%
CLint scaled at 1 µM [6]: 8.1 L/h/kg
inhibition at 10 µM (CYP2D6): 19%
half-life at 1 µM [7]: 13 min
Activity [8]: Non-toxic
IC50 [1]: 0.00023 µM
remaining at 8 h, 200 µM [9]: 67%
half-life at 1 µM [10]: 4.3 min
remaining at 4 h, 200 µM [11]: 81%
inhibition at 10 µM (CYP3A4): 47%
remaining at 8 h, 1 µM [12]: 84%
CLint scaled at 1 µM [13]: 85.8 L/h/kg

Compound: Cc1cc(-c2ccc(CCC(=O)Nc3ccc(-c4cnccn4)cn3)cc2)ccn1
remaining at 0.5 h, 1 µM [3]: 98%
remaining at 0 h, 200 µM [4]: 100%
remaining at 1 h, 1 µM [5]: 94%
CLint scaled at 1 µM [6]: 5.04 L/h/kg
inhibition at 10 µM (CYP2D6): 47%
half-life at 1 µM [7]: 21 min
IC50 [1]: 0.00019 µM
remaining at 8 h, 200 µM [9]: 93%
half-life at 1 µM [10]: 4.8 min
remaining at 4 h, 200 µM [11]: 97%
inhibition at 10 µM (CYP3A4): 45%
remaining at 8 h, 1 µM [12]: 90%
CLint scaled at 1 µM [13]: 75.6 L/h/kg

The next lines start with results.

IC50 [1]: 0.0027 µM
Compound: N#Cc1ccc2cc(OCC(=O)Nc3ccc(-c4cnccn4)cn3)ccc2c1

inhibition [2]: Active
remaining at 0.5 h, 1 µM [3]: 100%
remaining at 0 h, 200 µM [4]: 95%
remaining at 1 h, 1 µM [5]: 100%
CLint scaled at 1 µM [6]: 2.7 L/h/kg
inhibition at 10 µM (CYP2D6): 53%
half-life at 1 µM [7]: 39 min
IC50 [1]: 0.00096 µM
remaining at 8 h, 200 µM [9]: 85%
half-life at 1 µM [10]: 14 min
remaining at 4 h, 200 µM [11]: 88%
inhibition at 10 µM (CYP3A4): 50%
remaining at 8 h, 1 µM [12]: 98%
CLint scaled at 1 µM [13]: 26.4 L/h/kg
Compound: Cc1cc(-c2ccc(NCC(=O)Nc3ccc(-c4cnccn4)cn3)cc2)ccn1
Activity [8]: Non-toxic

IC50 [1]: 0.0022 µM
Compound: Cc1cc(-c2ccc(OC(=O)Nc3ccc(-c4cccnc4)cc3)cc2)ccn1

IC50 [1]: > 1 µM
Compound: COc1ccc2cc(OCC(=O)Nc3ccc(-c4cnccn4)cn3)ccc2c1

IC50 [1]: > 1 µM
Compound: O=C(CNc1ccc2[nH]ncc2c1)Nc1ccc(-c2cnccn2)cn1

IC50 [1]: 0.00067 µM
Compound: Cc1cc(-c2ccc(N(C)CC(=O)Nc3ccc(-c4cnccn4)cn3)cc2)ccn1

IC50 [1]: 0.485 µM
Compound: N#Cc1ccc(OCC(=O)Nc2ccc(-c3cnccn3)cn2)cc1

remaining at 0.5 h, 1 µM [3]: 93%
remaining at 0 h, 200 µM [4]: 98%
remaining at 1 h, 1 µM [5]: 91%
CLint scaled at 1 µM [6]: 15.8 L/h/kg
inhibition at 10 µM (CYP2D6): 45%
half-life at 1 µM [7]: 6.8 min
IC50 [1]: 0.00053 µM
remaining at 8 h, 200 µM [9]: 83%
half-life at 1 µM [10]: 3.4 min
remaining at 4 h, 200 µM [11]: 89%
inhibition at 10 µM (CYP3A4): 60%
remaining at 8 h, 1 µM [12]: 83%
CLint scaled at 1 µM [13]: 107 L/h/kg
Compound: Cc1cc(-c2ccc(SCC(=O)Nc3ccc(-c4cnccn4)cn3)cc2)ccn1

IC50 [1]: 0.04 µM
Compound: Cc1cc(-c2cccc(SCC(=O)Nc3ccc(-c4cnccn4)cn3)c2)ccn1

IC50 [1]: > 1 µM
Compound: O=C(COc1ccc2ccccc2c1)Nc1ccc(-c2cnccn2)cn1

IC50 [1]: > 1 µM
Compound: Nc1noc2ccc(OCC(=O)Nc3ccc(-c4cnccn4)cn3)cc12
